Patent US20240059961A1, “BIOCOMPATIBLE OXYGEN-SENSITIVE MATERIALS” (Promega Corporation, priority 2022, published 2024)

Key:
Type in all cases: cell-based
C2C12 cells = assay: Cell attachment / cellular coverage on protein-coated siloxane surface; settings: for coating concentration sufficient to enhance the adhesion of cells to the surface: C2C12 cells on coated siloxane surface; for cellular coverage on the substrate: C2C12 seeded at 60,000 cells/cm^2, assessed the following day, covalent or passive coating, 100-3,000 ug mL-1
Protocol: After silane film fabrication, the film surface was further modified with a biomacromolecule coating to enhance cell attachment. Biomacromolecules assessed for cell attachment include collagen type I (rat tail, acid extracted) and laminin. […] Passive coating of the substrate is achieved by incubating a solution of the biomacromolecule (e.g., 300 ug mL-1 collagen type I in 17 mM acetic acid) on the film for either 1 hour at room temperature or overnight at 4° C. Excess biomacromolecule was removed by washing the substrate with phosphate buffered saline (PBS).
The surface was coated with Collagen I and Laminin, either covalently or passively. Covalent conjugation is achieved with sulfo-SANPAH conjugation method, and passive coating is achieved by incubating the siloxane surface in the presence of the protein for 1 hour at room temperature. The protein was titrated from 100 ug mL-1-3,000 ug mL-1. C2C12 cells were seeded on the coated surface at 60,000 cells/cm^2, and cellular coverage on the substrate was assessed the following day.

HCT-116 cells = assay: Oxygen consumption of HCT-116 cells on the oxygen sensing film
Protocol: To determine the minimum number of cells necessary to observe a signal change, HCT-116 cells were titrated from 15k-120k cells/well (95k-750k cells/cm^2). The following day, the culture medium of the cells was replaced with fresh DMEM (high glucose, without phenol red), and the ratiometric fluorescence of 650/490 nm was recorded over time in a plate reader with temperature control at 37° C. […] Further experiments using drug treatments were carried out at 250k cells/cm^2.
HCT-116 cells were seeded onto the oxygen sensing surface functionalized with 300 ug mL-1 Collagen I at 40,000 cells/well of a half-area 96-well plate (250,000 cells/cm^2). The following day, the culture medium was replaced with medium containing 2-[[4-(trifluoromethoxy)phenyl]hydrazinylidene]propanedinitrile (FCCP), an uncoupler of oxidative phosphorylation in mitochondria that increases oxygen consumption. […] HCT-116 cells were additionally treated with rotenone at 2 uM, which is an inhibitor of oxidative phosphorylation.

HEP-G2 = assay: Oxygen consumption of HEP-G2 cells on the oxygen sensing film; settings: HEP-G2, drug treatment
PC-3 = assay: Oxygen consumption of PC-3 cells on the oxygen sensing film; settings: PC-3, drug treatment

Question: Which “coating concentration sufficient to enhance the adhesion of cells to the surface” value (C2C12 cells) does the source give for Laminin here?
Answer: 300 µg/mL

Question: What about the “cellular coverage on the substrate” value (C2C12 cells) of the same compound?
Answer: enhanced cellular coverage

Question: “Collagen I: collagen type I (rat tail, acid extracted), biomacromolecule coating to enhance cell attachment” was tested. Which “coating concentration sufficient to enhance the adhesion of cells to the surface” value (C2C12 cells) did it give?
Answer: 300 µg/mL

Question: What about the “cellular coverage on the substrate” value (C2C12 cells) of the same compound?
Answer: enhanced cellular coverage

Question: What about the cell attachment (C2C12 cells; passive coating of the film) of the same compound?
Answer: sufficient for cell attachment

Question: Which results are given for C=C(C)[C@H]1Cc2c(ccc3c2O[C@@H]2COc4cc(OC)c(OC)cc4[C@@H]2C3=O)O1 [rotenone]?
Answer: oxygen consumption (HCT-116 cells; HCT-116, rotenone at 2 uM): inhibited oxygen consumption; oxygen consumption (HEP-G2): decreased oxygen consumption; oxygen consumption (PC-3): decreased oxygen consumption

Question: Which oxygen consumption (HCT-116 cells; HCT-116, 40,000 cells/well, FCCP treatment, concentration up to 4 uM) does the source give for N#CC(C#N)=NNc1ccc(OC(F)(F)F)cc1 [FCCP, 2-[[4-(trifluoromethoxy)phenyl]hydrazinylidene]propanedinitrile] here?
Answer: oxygen consumption increased with increasing FCCP concentration up to 4 uM

Question: What about the oxygen consumption (HEP-G2) of the same compound?
Answer: increased oxygen consumption

Question: What about the oxygen consumption (PC-3) of the same compound?
Answer: increased oxygen consumption
